Legend:
humans = conditions: selective trigeminal irritant during nocturnal sleep; cited from earlier work
8-day-old rats = conditions: cited from earlier work
healthy subjects [1] = assay: Arousal and wake-up frequency after odorant presentation during sleep (polysomnography); assay type: in vivo, human; conditions: odor vs clean-air baseline, across sleep stages; 5-20 s stimuli, 50% odor concentration
Description: (§1) Odorants were delivered with a computer-controlled air dilution olfactometer built according to principals described in Sobel et al. 1997; Johnson and Sobel 2007 which are incorporated herein by reference. Room air (3 Liter per minute) was mixed with the odorized air (3 liter per minute), resulting in odor concentration of 50%. The odorant line culminated at a small nasal mask that was subserved by a vacuum line pulling at the same rate of airflow. This provided an odor environment at the nose where odorant onset and offset occurred within 2 and 260 ms, respectively, with no visual, auditory, tactile, humidity, or thermal cues as to the alteration. In other words, the odorant stimulus was not a puff of air but rather a block of odorant embedded within an airflow that was constant for the duration of the study. The olfactometer itself was located in a room adjacent to the sleep room, and only the airflow tubing crossed into the sleep room via a wave guide within the stainless steel-coated wall. This provided additional separation from any possible visual or auditory stimulation associated with the olfactometer (e.g., LEDs on its front panel, etc.).
Physiological measurements were recorded using a Power-Lab 16SP Monitoring System (ADInstruments) running off a Macintosh G4 computer using a sampling rate of 1000 Hz and a 50-Hz notch filter to remove electrical artifacts. For all measures dependent on electrodes, the scalp surface was cleaned with mild abrasive gel (Nuprep gel, Aurora) in order to assist in lowering impedance at the electrode site. For pasted to electrodes on the rest of the body, the skin surface was also first cleaned with alcohol. The following measures were recorded:
Electroencephalogram (EEG) was obtained through 2 circular electrodes ([…]) that were located at positions C3 and C4 according to the 10-20 system and were referenced to electrodes on the opposite mastoids (A2 and A1, respectively). Signals were amplified using a preamplifier (Octal Bio Amp ML138, ADInstruments).
Electromyogram (EMG) was obtained through 2 circular Ag/AgCl conductive adhesive electrodes (0.9 cm diameter). The electrodes were located bilaterally adjacent to the submentalis muscles. Signals were amplified using a preamplifier (Octal Bio Amp ML138, ADInstruments). […]
Blood oxygination (SpO2) was measured with an oxymeter (MLT321 SpO2 Finger Clip Sensor, ADInstruments) embedded within a finger clip placed on the left index finger.
Sleep stages were scored off-line according to the R and K criteria (Rechtschaffen and Kales 1968). […]
The experimenters observed the real-time polysomnography reading, and 20 min after they determined that the subject had entered stage 2 sleep, they initiated the experimental protocol that from this point on was computer controlled. […]

healthy subjects [2] = assay: Respiration (inhale/exhale volume) after odorant presentation during sleep; assay type: in vivo, human; conditions: for inhale/exhale volume ratio following odor presentation in comparison to baseline: nasal respiration, across all sleep stages; for difference in respiration volume ratio across sleep stages: repeated measures ANOVA between sleep stages
Description: as §1
Overall respiration was computed as a reflection of changes in thoracic respiration and abdominal respiration circumference measured using 2 piezoelectric respiratory belt transducers (1132 Pneumotrace II, UFI).
Nasal and Oral respiration was measured using separate pneumotachometers (high-sensitivity flowmeter model #4719, Hans Rudolph, Inc.) that were attached in line with the vent ports of the mask. The pneumotachometer differential pressure was measured and converted to a voltage signal using a spirometer (ML141, ADInstruments) that delivered the voltage to the instrumentation amplifier.
The effects of odorants on 4 breath parameters were tested: breath mean airflow velocity, breath maximum airflow velocity, breath volume, and breath duration. Breath volume was calculated by the trapezoidal Reimann sum method (Johnson et al. 2006). Breaths were aligned in time by setting the point at which the breath passed from the expiratory phase to the inspiratory phase as time 0.
The experimenters observed the real-time polysomnography reading, and 20 min after they determined that the subject had entered stage 2 sleep, they initiated the experimental protocol that from this point on was computer controlled. Every 9, 12, or 15 min (randomized), the olfactometer generated a 5-, 10-, or 20-s (randomized) odor stimulus. […] Upon spontaneous morning wake-up, subjects again rated the intensity and pleasantness of the odorant and were then debriefed, paid, and released.
Averages of respiration measurements for inhalation, exhalation, and inhalation/exhalation ratio in the 30 breaths before odor onset were compared with the averages of respiration measurements for inhalation, exhalation, and inhalation/exhalation ratio for each one of 6 breaths after odor onset across sleep stages per odorant and for all odorants together. This analysis was corrected for the 6 comparisons using a Bonferroni correction. Respiratory measurements were compared between sleep stages per odorant in a repeated measures ANOVA.
The second alternative is that, although oral respiration typically reflects only; 4% of overall respiration in sleep (Fitzpatrick et al. 2003), the odorant may have changed the balance between nasal and oral breathing such that oral inspiration increased. Under this scenario, the increase in nasal exhalation reflected an increase in oral inspiration rather than the exhalation of air stored in the lungs. The above data could not discriminate between these alternatives because it relied on accurate measurement of nasal respiration alone. An additional control group of 10 subjects were studied using the odorant vetiver oil that in addition to the nasal mask were fitted with an oral mask in order to accurately measure oral and nasal respiration simultaneously.

[3] = first breath after dispersion, worded 'may' in the description

SMILES | effect of odor on arousal frequency (healthy subjects [1]) | effect of odor on wake-up frequency (healthy subjects [1]) | inhale/exhale volume ratio following odor presentation in comparison to baseline (healthy subjects [2]) | difference in respiration volume ratio across sleep stages (healthy subjects [2]) | other results
O=C=O [CO2] |  |  |  |  | arousal frequency (humans): concentration-dependent increase in arousal frequency
CSSC [DMDS, dimethyl disulfide] |  |  |  |  | sniffing during sleep (8-day-old rats; 8-day-old rats presented with odorant): sniffing, including polypnea, occurred while the rats were asleep; arousal responses (8-day-old rats; sleeping 8-day-old rats): did not evoke reliable arousal responses
[NH4+].[NH4+].[S-2] [ammonium sulfide] | no effect of odor | no effect of odor on wake-up | significantly smaller | no difference | 
COc1cc(C=O)ccc1O [vanillin] | no effect of odor on arousal | no effect of odor on wake-up | significantly smaller | no difference | decrease of inhalation volume (healthy subjects [2]; [3]): about 23%; increase of exhalation volume (healthy subjects [2]; [3]): about 6%; reduction of nasal inhalation/exhalation volume ratio (healthy subjects [2]; first breath after odor onset, worded 'may' in the description): about 27%; reduction of nasal inhalation/exhalation volume ratio (healthy subjects [2]; sixth breath after odor onset, worded 'may' in the description): about 5%

— patent US10456550B2, “Device and method for controlling respiration during sleep” (Yeda Research and Development Co. Ltd., priority 2010, dated 2019)
